# ± gives the expanded uncertainty stated by the source.
# Assay: mn = molality of the nth substance listed, in mol/kg
# Settings: 100 kPa, Liquid; for speed of sound: Frequency=3 MHz, Sing-around technique in a fixed-path interferometer; for mass density: Vibrating tube method
smiles,measurement,setting,value
C[C@H]1COc2c(N3CCN(C)CC3)c(F)cc3c(=O)c(C(=O)O)cn1c23 [levofloxacin] + O,speed of sound,"288.15 K, m1 = 0.005",1467.4 ± 1.6 m/s
same,speed of sound,"288.15 K, m1 = 0.01",1468.3 ± 1.6 m/s
same,speed of sound,"288.15 K, m1 = 0.03",1471.4 ± 1.6 m/s
same,mass density,"288.15 K, m1 = 0.005",1001.5 ± 2 kg/m3
same,mass density,"288.15 K, m1 = 0.01",1002.04 ± 2 kg/m3
same,mass density,"288.15 K, m1 = 0.03",1004.52 ± 2 kg/m3
same,speed of sound,"293.15 K, m1 = 0.005",1483.2 ± 1.6 m/s
same,speed of sound,"293.15 K, m1 = 0.01",1484 ± 1.6 m/s
same,speed of sound,"293.15 K, m1 = 0.03",1487.2 ± 1.6 m/s
same,mass density,"293.15 K, m1 = 0.005",1000.61 ± 2 kg/m3
same,mass density,"293.15 K, m1 = 0.01",1001.14 ± 2 kg/m3
same,mass density,"293.15 K, m1 = 0.03",1003.59 ± 2 kg/m3
same,speed of sound,"298.15 K, m1 = 0.005",1497.3 ± 1.6 m/s
same,speed of sound,"298.15 K, m1 = 0.01",1498.1 ± 1.6 m/s
same,speed of sound,"298.15 K, m1 = 0.03",1500.9 ± 1.6 m/s
same,mass density,"298.15 K, m1 = 0.005",999.444 ± 2 kg/m3
same,mass density,"298.15 K, m1 = 0.01",999.956 ± 2 kg/m3
same,mass density,"298.15 K, m1 = 0.03",1002.39 ± 2 kg/m3
same,speed of sound,"303.15 K, m1 = 0.005",1509.7 ± 1.6 m/s
same,speed of sound,"303.15 K, m1 = 0.01",1510.4 ± 1.6 m/s
same,speed of sound,"303.15 K, m1 = 0.03",1513 ± 1.6 m/s
same,mass density,"303.15 K, m1 = 0.005",998.037 ± 2 kg/m3
same,mass density,"303.15 K, m1 = 0.01",998.556 ± 2 kg/m3
same,mass density,"303.15 K, m1 = 0.03",1000.96 ± 2 kg/m3
same,speed of sound,"308.15 K, m1 = 0.005",1520.3 ± 1.6 m/s
same,speed of sound,"308.15 K, m1 = 0.01",1521 ± 1.6 m/s
same,speed of sound,"308.15 K, m1 = 0.03",1523.4 ± 1.6 m/s
same,mass density,"308.15 K, m1 = 0.005",996.415 ± 2 kg/m3
same,mass density,"308.15 K, m1 = 0.01",996.926 ± 2 kg/m3
same,mass density,"308.15 K, m1 = 0.03",999.305 ± 2 kg/m3

# From the NIST ThermoML archive (doi:10.1016/j.jct.2016.09.027)
